Series [1] has as its target dopamine transporter (Mus musculus, UniProt Q61327). The experiment in a line: In vivo binding / regional brain distribution of radiolabeled ligand after i.v. injection in mice. The protocol:
Male CD mice weighting 25-35 g received 1 μCi [^3H]RTI-352 ([…], diluted in saline containing 0.5% methanol) by intravenous injection. The animals were killed at different times, and [^3H]RTI-352 concentrations in different brain regions determined as previously described (Scheffel et al., 1989; Cline et al., 1992). To evaluate the selectivity of [^3H]RTI-352 in vivo binding, blocking doses (5 mg/kg, dissolved in 0.1 ml saline) of GBR 12,909 (DAT blocker), desipramine (NET blocker), or paroxetine (5-HTT blocker) were injected intravenously 5 minutes before [^3H]RTI-352 tracer injection. The animals were killed 30 minutes later and [^3H]RTI-352 concentrations determined in the various brain tissues.
The percent dose per gram tissue peaked rapidly in all regions of the brain and was maintained for a slightly longer time in the striatum compared to other tissues that lack DAT. The tissue to cerebellar ratios reflected this fact in that striatal to cerebellar ratios were relatively high at early times but low at later times (FIG. 1).

Series [2] deals with T1, dopamine transporter (UniProt P23977).
T1 construct: other: 0.5 nM [3H]WIN 35,428; mean ± standard error where given
The note with it: read-out: IC50 DA [3H]WIN 35,428; 0.5 nM [3H]WIN 35,428; values taken from literature (footnotes c-h); cited from earlier work.

In series [3] the target is norepinephrine transporter (UniProt Q9WTR4). Conditions: read-out: IC50 NE [3H]Nisoxetine; 0.5 nM [3H]nisoxetine; values taken from literature (footnotes d-h); cited from earlier work.
Series [4] concerns the target serotonin transporter (UniProt P31652). Conditions: read-out: IC50 5-HT [3H]Paroxetine; 0.2 nM [3H]paroxetine; values taken from literature (footnotes d-h); cited from earlier work.
The target of series [5] is T1, dopamine transporter. It counts as binding. Conditions: read-out: IC50 DA [3H]WIN 35,428; 0.5 nM [3H]WIN 35,428; mean ± standard error where given.
Series [6] concerns the target norepinephrine transporter (UniProt Q9WTR4). The experiment in a line: Inhibition of 0.5 nM [3H]nisoxetine binding to the norepinephrine transporter. The note with it: read-out: IC50 NE [3H]Nisoxetine; 0.5 nM [3H]nisoxetine; mean ± standard error where given.
The test system of series [7] is norepinephrine transporter. The series is described as above. The note with it: ratio of IC50 values.
Series [8] concerns serotonin transporter. It counts as binding. The note with it: for 5-HT/DA Ratio: ratio of IC50 values.
The target of series [9] is serotonin transporter (UniProt P31652). The series is classed as binding. Conditions: read-out: IC50 5-HT [3H]Paroxetine; 0.2 nM [3H]paroxetine; mean ± standard error where given.

Data on eleven molecules can be found in US6358492B1, “Dopamine transporter imaging ligand” (Research Triangle Institute, priority 1997, dated 2002).

Counter-ions that a name gives are not always drawn. Like-named read-outs stand apart in the source and are kept apart here.

Chain of dopamine transporter (Mus musculus, UniProt Q61327) (Q61327 whole entry): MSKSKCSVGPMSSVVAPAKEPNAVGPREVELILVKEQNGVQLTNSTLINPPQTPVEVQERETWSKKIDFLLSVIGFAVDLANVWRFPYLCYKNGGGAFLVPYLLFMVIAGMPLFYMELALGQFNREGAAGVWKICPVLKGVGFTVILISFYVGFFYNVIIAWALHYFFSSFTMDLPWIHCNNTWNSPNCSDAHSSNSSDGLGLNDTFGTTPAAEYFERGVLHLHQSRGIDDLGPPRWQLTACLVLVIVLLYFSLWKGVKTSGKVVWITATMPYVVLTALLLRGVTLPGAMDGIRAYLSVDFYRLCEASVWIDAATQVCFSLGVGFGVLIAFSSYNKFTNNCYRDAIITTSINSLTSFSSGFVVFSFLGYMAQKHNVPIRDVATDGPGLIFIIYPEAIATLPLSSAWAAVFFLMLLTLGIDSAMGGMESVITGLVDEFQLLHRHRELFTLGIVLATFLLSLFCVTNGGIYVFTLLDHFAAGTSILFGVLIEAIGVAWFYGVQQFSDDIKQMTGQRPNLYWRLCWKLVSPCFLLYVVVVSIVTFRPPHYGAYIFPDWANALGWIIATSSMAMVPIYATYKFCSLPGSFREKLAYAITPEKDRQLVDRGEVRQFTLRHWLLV

Consider `[3H]C([3H])([3H])N1[C@H]2CC[C@@H]1[C@@H](C(=O)OC)[C@H](c1ccc(I)cc1)C2` [[^3H]RTI-352], for which the hypothalamus/cerebellum ratio in series [1] (mouse brain, i.v. 1 μCi tracer, little enrichment at any time) is recorded as 1.4. For the same molecule, in series [1] (mouse, i.v. injection), the efflux from brain result is listed as “relatively rapid” and the penetration into brain result is “very rapid”.
`COC(=O)[C@H]1[C@@H](c2ccc([125I])cc2)C[C@@H]2CC[C@H]1N2C` [[^125I]RTI-55, reference compound]: the “approach to equilibrium of striatal to cerebellar ratios” value in [1] (mouse, parallel in vivo labeling experiments) is listed as “steadily increasing at 120 min”.
What is called IC50 is the concentration that inhibits the measured activity by half. With `COC(=O)C1C(c2ccccc2)CC2CCC1N2C` (stereo not shown) [1e], the IC50 was 23 ± 5 nM in [2] and 920 ± 73 nM in [3].
`COC(=O)C1C(c2ccc(Cl)cc2)CC2CCC1N2C` (stereo not shown) [1c]: in series [4], the half-maximal inhibitory concentration (IC50) was 44.5 ± 1.3 nM.
In the case of `COC(=O)[C@@H]1[C@H]2CC[C@@H](C[C@H]1c1ccc(I)cc1)N2C.Cc1ccc(S(=O)(=O)O)cc1` [2b, 3α-(4-Iodophenyl)tropane-2β-carboxylic acid methyl ester tosylate], the “time at which striatal-to-cerebellar ratio peaked” value in [1] (mouse brain, i.v. tracer) was “about 30 min”. The “time the peak striatal-to-cerebellar ratio was maintained thereafter” value in [1] (mouse brain, i.v. tracer) is listed as “about 20 min”. Besides, the IC50 in series [5] is 2.85 ± 0.16 nM; in [6], 52.4 ± 4.9 nM; in series [9], 64.9 ± 1.97 nM. For the same molecule, the “NE/DA Ratio” value in series [7] was 18. Besides, the “5-HT/DA Ratio” value in series [8] stood at 23. Moreover, in series [8] (relative to 1b (RTI-55)), the “times more selective for the DAT relative to the 5-HT transporter” value stood at 7 times.
For the molecule `COC(=O)C1C(c2ccc(I)cc2)CC2CCC1N2C` (stereo not shown) [1b, reference compound], in series [4], the IC50 was 4.21 ± 0.3 nM. Further, the “NE/DA Ratio” value in series [7] was 29. In addition, the “5-HT/DA Ratio” value in series [8] worked out at 3.3.
Turning to `COC(=O)[C@@H]1[C@H]2CC[C@@H](C[C@H]1c1ccc(F)cc1)N2C` [2a, 3α-(4-Fluorophenyl)tropane-2β-carboxylic acid methyl ester], the figures for the IC50 in series [6] and in [9] were 1230 nM and 5060 nM, respectively.
As to `COC(=O)C1C(c2ccccc2)CC2CCC1N2C` (stereo not shown) [2e], the IC50 was 101 ± 16 nM in series [5] and 2080 nM in series [6].
For `COC(=O)[C@@H]1[C@H]2CC[C@@H](C[C@H]1c1ccc(Cl)cc1)N2C` [2c, 3α-(4-Chlorophenyl)tropane-2β-carboxylic acid methyl ester tosylate], the IC50 came out at 2.4 ± 0.2 nM in series [5] and 998 ± 120 nM in [9].
With `COC(=O)C1C(c2ccc(F)cc2)CC2CCC1N2C` (stereo not shown) [1a], the IC50 was 810 ± 59 nM in series [4] and 835 ± 45 nM in series [3].
With `COC(=O)[C@@H]1[C@H]2CC[C@@H](C[C@H]1c1ccc(C)cc1)N2C` [2d, 3α-(4-Methylphenyl)tropane-2β-carboxylic acid methyl ester tosylate], the IC50 worked out at 10.2 ± 0.8 nM in [5] and 275 ± 24 nM in series [6].
